Laboratory results taken from article PMC6009867, “Microwave-assisted synthesis and bioevaluation of new sulfonamides” (Journal of Enzyme Inhibition and Medicinal Chemistry, 2017).

Key:
[1] = test system: Ca9-22 (human oral squamous cell carcinoma, gingiva); assay: Cytotoxicity assay (MTT), Ca9-22 cells; assay type: cell-based; conditions: for TS (C/A): CC50 HGF / CC50 Ca9-22; for times of potency versus 5-FU toward Ca9-22: CC50 ratio to reference 5-FU; for CC50: Homo sapiens, Ca9-22, 48 h, MTT, triplicate wells; for SI Ca9-22: average CC50 of nonmalignant cells / CC50 toward Ca9-22
Protocol: (§1) The cytotoxicity of the compounds were assayed toward human oral squamous cell carcinoma cell lines derived from gingiva tissue (CA9–22) and tongue (HSC-2, HSC-3, HSC-4), and human normal oral cells (gingival fibroblasts, HGF; periodontal ligament fibroblasts, HPLF; pulp cells, HPC) with some minor modifications[16]^,[17]^,[26]^,[30–33]. In brief, cells were cultured in DMEM supplemented with 10% fetal bovine serum (FBS). Cells (2.5 × 10^3 cells/well) were inoculated and incubated for 48 h to achieve complete adherence. Near confluent cells were incubated for a further 48 h in the fresh culture medium containing each test compound (3.12, 6.25, 12.5, 25, 50, 100, 200, 400 μM) or 5-FU (positive control) (7.8, 15.6, 31.2, 62.5, 125, 250, 500, 1000 μM). The viable cell numbers were determined by the MTT method. Cytotoxicity induced by DMSO (0.0078, 0.0156, 0.03125, 0.0625, 0.125, 0.25, 0.5 or 1%) was subtracted from each well. The CC50 values were determined from the dose-response curves. The tumor selectivity (TS) was calculated by the following equation: TS = mean CC50 against normal cells/mean CC50 against cancer cells [shown as (D/B) or (C/A) in Table 1]. A potency selectivity expression (PSE) was calculated by multiplying the reciprocal of average CC50 values toward cancer cell lines and the average SI values toward these cell lines and expressed as a percentage [PSE = (D/B^2) × 100].

[2] = test system: HSC-2 (human oral squamous cell carcinoma, tongue); assay: Cytotoxicity assay (MTT), HSC-2 cells; assay type: cell-based; conditions: for CC50: Homo sapiens, HSC-2, 48 h, MTT; for SI HSC-2: average CC50 of nonmalignant cells / CC50 toward HSC-2; for times of potency versus 5-FU toward HSC-2: CC50 ratio to reference 5-FU
Protocol: as §1

[3] = test system: HSC-3 (human oral squamous cell carcinoma, tongue); assay: Cytotoxicity assay (MTT), HSC-3 cells; assay type: cell-based; conditions: for CC50: Homo sapiens, HSC-3, 48 h, MTT; for SI HSC-3: average CC50 of nonmalignant cells / CC50 toward HSC-3
Protocol: as §1

[4] = test system: HSC-4 (human oral squamous cell carcinoma, tongue); assay: Cytotoxicity assay (MTT), HSC-4 cells; assay type: cell-based; conditions: for CC50: Homo sapiens, HSC-4, 48 h, MTT; for SI HSC-4: average CC50 of nonmalignant cells / CC50 toward HSC-4
Protocol: as §1

[5] = Cytotoxicity assay (MTT), HGF cells; assay type: cell-based; conditions: human, gingival fibroblasts (HGF), normal oral cells
Protocol: as §1

[6] = Cytotoxicity assay (MTT), HPLF cells; assay type: cell-based; conditions: human, periodontal ligament fibroblasts (HPLF), normal oral cells
Protocol: as §1

[7] = Cytotoxicity assay (MTT), HPC cells; assay type: cell-based; conditions: human, pulp cells (HPC), normal oral cells
Protocol: as §1

[8] = test system: Human oral squamous cell carcinoma cells; assay: Cytotoxicity assay (MTT), mean over four OSCC cell lines; assay type: cell-based; conditions: for CC50: Homo sapiens, mean of Ca9-22, HSC-2, HSC-3, HSC-4, read-out: (B) Mean CC50, human oral squamous cell carcinoma cells; for TS (D/B): mean CC50 normal cells / mean CC50 OSCC cells; for PSE (D/B^2) × 100: potency selectivity expression, expressed as a percentage
Protocol: as §1

[9] = Cytotoxicity assay (MTT), mean over three normal oral cells; assay type: cell-based; conditions: human; mean of HGF, HPLF, HPC; read-out: (D) Mean CC50, human normal oral cells
Protocol: as §1

hCA I = hCA I (Homo sapiens, UniProt P00915); assay: Carbonic anhydrase inhibition assay (esterase activity, 348 nm), hCA I; assay type: biochemical; conditions: for Ki: Lineweaver-Burk, three concentrations; for IC50: from activity (%) versus compound plots; for times more potent than AZA toward hCA I: in terms of IC50 values
hCA I, sequence (P00915 whole entry): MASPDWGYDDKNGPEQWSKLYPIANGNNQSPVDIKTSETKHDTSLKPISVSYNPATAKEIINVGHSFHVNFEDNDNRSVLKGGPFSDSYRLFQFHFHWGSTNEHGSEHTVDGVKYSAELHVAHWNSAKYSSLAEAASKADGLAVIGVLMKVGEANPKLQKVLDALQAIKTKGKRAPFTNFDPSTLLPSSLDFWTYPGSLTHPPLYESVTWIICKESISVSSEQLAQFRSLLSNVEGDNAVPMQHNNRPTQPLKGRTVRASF

hCA II = hCA II (Homo sapiens, UniProt P00918); assay: Carbonic anhydrase inhibition assay (esterase activity, 348 nm), hCA II; assay type: biochemical; conditions: for Ki: Lineweaver-Burk, three concentrations; for IC50: from activity (%) versus compound plots; for times more potent than AZA toward hCA II: in terms of IC50 values

Structure (SMILES)	Ki (hCA I) [µM]	IC50 (hCA I) [µM]	times more potent than AZA toward hCA I (hCA I)	TS (C/A) [1]	times of potency versus 5-FU toward Ca9-22 [1]	CC50 [1] [µM]	SI Ca9-22 [1]	CC50 [2] [µM]	SI HSC-2 [2]	CC50 [3] [µM]	SI HSC-3 [3]	CC50 [4] [µM]	SI HSC-4 [4]	CC50 at 48 h [5] [µM]	CC50 at 48 h [6] [µM]	CC50 at 48 h [7] [µM]	CC50 [8] [µM]	TS (D/B) [8]	PSE (D/B^2) × 100 [8]	CC50 at 48 h [9] [µM]	further results
O=c1[nH]cc(F)c(=O)[nH]1 [Compound 5-FU, 5-Fluorouracil, reference compound]				>10.0		100	>167.3	45.7	>16.1	27.3	>71.5	17.3		> 1000	208	> 1000	47.6	>15.5	>32.6	> 736	
NS(=O)(=O)c1ccc(N2N=C(c3ccc(F)cc3)CC2c2ccc(O)cc2)cc1 (stereo not drawn) [Compound 11, 4-[5-(4-Hydroxyphenyl)-3-(4-fluorophenyl)-4,5-dihydro-1H-pyrazol-1-yl] benzenesulfonamide]	0.0051 ± 0.00117	0.00568	33.5	1.8	2.8	36.3	1.6	46.3	1.3	43.3	1.4	39.3	1.5	66.7	43	67.7	41.3	1.4	3.5	59.1	times of potency versus 5-FU toward HSC-2 [2]: 1.0; Ki (hCA II): 0.00453 ± 0.00075 µM; IC50 (hCA II): 0.00572 µM; times more potent than AZA toward hCA II (hCA II): 34.9
NS(=O)(=O)c1ccc(N2N=C(c3ccccc3)CC2c2ccc(O)cc2)cc1 (stereo not drawn) [Compound 8, 4-[5-(4-Hydroxyphenyl)-3-phenyl-4,5-dihydro-1H-pyrazol-1-yl]benzenesulfonamide]	0.00484 ± 0.00078	0.00481	39.5	2.0	2.4	42	1.8	67	1.1	66.3	1.1	50.3	1.5	85	54.3	88.3	56.4	1.3	2.3	75.9	Ki (hCA II): 0.00459 ± 0.00083 µM; IC50 (hCA II): 0.00495 µM; times more potent than AZA toward hCA II (hCA II): 40.3
Cc1ccc(C2=NN(c3ccc(S(N)(=O)=O)cc3)C(c3ccc(O)cc3)C2)cc1 (stereo not drawn) [Compound 9, 4-[5-(4-Hydroxyphenyl)-3-(4-methylphenyl)-4,5-dihydro-1H-pyrazol-1-yl]benzene sulfonamide]	0.00459 ± 0.00125	0.00529	35.9	1.7	3.9	25.7	1.7	33.3	1.3	39.7	1.1	31.7	1.4	43.7	39.3	49.7	32.6	1.4	4.2	44.2	times of potency versus 5-FU toward HSC-2 [2]: 1.4; Ki (hCA II): 0.00748 ± 0.00252 µM; IC50 (hCA II): 0.00563 µM; times more potent than AZA toward hCA II (hCA II): 35.5

Continued, in another order:

Ki (hCA I) [µM]	IC50 (hCA I) [µM]	times more potent than AZA toward hCA I (hCA I)	Structure (SMILES)	TS (C/A) [1]	times of potency versus 5-FU toward Ca9-22 [1]	CC50 [1] [µM]	SI Ca9-22 [1]	CC50 [2] [µM]	SI HSC-2 [2]	CC50 [3] [µM]	SI HSC-3 [3]	CC50 [4] [µM]	SI HSC-4 [4]	CC50 at 48 h [5] [µM]	CC50 at 48 h [6] [µM]	CC50 at 48 h [7] [µM]	CC50 [8] [µM]	TS (D/B) [8]	PSE (D/B^2) × 100 [8]	CC50 at 48 h [9] [µM]	further results
0.00399 ± 0.0009	0.00484	39.3	COc1ccc(C2=NN(c3ccc(S(N)(=O)=O)cc3)C(c3ccc(O)cc3)C2)cc1 (stereo not drawn) [Compound 10, 4-[5-(4-Hydroxyphenyl)-3-(4-methoxyphenyl)-4,5-dihydro-1H-pyrazol-1-yl] benzenesulfonamide]	1.3	2.7	37.7	1.3	65.3	0.8	47	1.1	40.7	1.2	47.3	44	61	47.7	1.1	2.2	50.8	Ki (hCA II): 0.00507 ± 0.00169 µM; IC50 (hCA II): 0.00537 µM; times more potent than AZA toward hCA II (hCA II): 37.1
0.00373 ± 0.00091	0.00422	45.1	NS(=O)(=O)c1ccc(N2N=C(c3ccc(Br)cc3)CC2c2ccc(O)cc2)cc1 (stereo not drawn) [Compound 13, 4-[5-(4-Hydroxyphenyl)-3-(4-bromophenyl)-4,5-dihydro-1H-pyrazol-1-yl] benzenesulfonamide]	1.7	4.8	20.7	1.7	37.7	0.9	34.7	1.0	25.7	1.4	34.7	29.7	39.7	29.7	1.2	3.9	34.7	times of potency versus 5-FU toward HSC-2 [2]: 1.2; Ki (hCA II): 0.00456 ± 0.00108 µM; IC50 (hCA II): 0.00465 µM; times more potent than AZA toward hCA II (hCA II): 42.9
0.00417 ± 0.00093	0.00513	37.1	NS(=O)(=O)c1ccc(N2N=C(c3cccs3)CC2c2ccc(O)cc2)cc1 (stereo not drawn) [Compound 14, 4-[5–(4-Hydroxyphenyl)-3-(thiophen-2-yl)-4,5-dihydro-1H-pyrazol-1-yl] benzenesulfonamide]	1.9	2.2	45.7	1.8	55	1.5	61.3	1.4	55.3	1.5	88.3	73	87.3	54.3	1.5	2.8	82.9	Ki (hCA II): 0.00385 ± 0.00057 µM; IC50 (hCA II): 0.00545 µM; times more potent than AZA toward hCA II (hCA II): 36.6
0.00449 ± 0.00067	0.00491	38.7	NS(=O)(=O)c1ccc(N2N=C(c3ccc(Cl)cc3)CC2c2ccc(O)cc2)cc1 (stereo not drawn) [Compound 12, 4-[5-(4-Hydroxyphenyl)-3-(4-chlorophenyl)-4,5-dihydro-1H-pyrazol-1-yl] benzenesulfonamide]	2.0	4.5	22.3	2.0	39	1.1	38.3	1.2	31.3	1.4	44	38.3	50.7	32.8	1.4	4.1	44.3	times of potency versus 5-FU toward HSC-2 [2]: 1.2; Ki (hCA II): 0.00406 ± 0.0006 µM; IC50 (hCA II): 0.00425 µM; times more potent than AZA toward hCA II (hCA II): 46.9
